{"source": "patent US20220265629A1", "about": "“TREATMENT OF SYSTOLIC DYSFUNCTION AND HEART FAILURE WITH REDUCED EJECTION FRACTION WITH THE COMPOUND (R)-4-(1-((3-(DIFLUOROMETHYL)-1-METHYL-1H-PYRAZOL-4-YL)SULFONYL)-1-FLUOROETHYL)-N-(ISOXAZOL-3-YL)PIPERIDINE-1-CARBOXAMIDE” (MyoKardia, Inc., priority 2019, published 2022)", "assay": "HFrEF study Part 2 (MAD Cohorts A-D): plasma pharmacokinetics", "type": "in vivo, human", "settings": "for AUC_TAU: steady state", "excerpt": "This was a randomized, parallel-group, DB, placebo-controlled, adaptive design, sequential ascending (oral) multiple-close study in stable patients with heart failure. Four MAD Cohorts (A, B, C, D) were enrolled (FIG. 5B). An SRC reviewed results from each cohort and determined the close and confirmed initial sample size for the subsequent cohort. Additionally, the first 3 patients in each cohort had LVEF≥25%; the SRC reviewed preliminary safety data from these patients and decided whether to open cohort enrollment to patients with LVEF<25%.\nAfter Screening and qualification, patients were confined to a clinical testing facility from Day 1 (Check-in) to Day 11. Each patient initially received placebo BID for 2 days (Days 1 and 2) in single-blinded manner (“run-in” during acclimatization to confinement in the Clinical Testing Unit) prior to receiving the randomized DB study drug treatment on Day 3. All patients then received either placebo or active Compound I for 7 days (Days 3 through 9), with a follow-up period with patients discharged from the unit on Day 11. A final follow-up clinic visit was conducted on Day 16. More than one patient could be closed in a cohort at the same time or during the same week depending on administrative issues, i.e., capacity and scheduling.\nPatients were closed twice daily (every 12 hours). Doses could occur±2 hours from scheduled dosing times as long as closes were separated by at least 10 hours and by no more than 14 hours. The exception to the twice daily dosing was on Day 9 (last dose of randomized DB study drug treatment). On Day 9, a single morning close was administered.\nDuring the study, multiple evaluations were performed that included: serial TTE assessments (11-14 TTEs per patient on Days 1, 2, 3, 4, 7, 9, 10 and 11); PK sampling (PK sample collected concomitantly with every post-randomization echocardiogram); ECGs (on Days 2, 3, 4, 7, 9, 10, 11 and 16); troponin (collected concomitantly with every post-randomization ECG); and safety laboratory assessments. Confined patients underwent continuous telemetry. Holter monitoring was performed in all patients at baseline (Days 1-2) and at the end of double-blind treatment (Days 7-9). Vital signs were collected daily.\nStudy medication consisted of Compound I 5 mg tablets, 25 mg tablets, 100 mg tablets, or matching placebo tablets. In Part 1 (SAD), Compound I or placebo was administered after an overnight fast (at least 6 hours), while in Part 2 (MAD), Compound I was administered after a 2 hour fast (Cohort A) or with food (Cohorts B, C, and D). The close was ingested with a minimum of 240 mL of water, but more water was ingested as needed. The entire close was administered over a period of up to 15 minutes. The time of close used to determine future assessments was the time the last tablet was taken. In the cohorts for Part 2 (MAD), a BID regimen was used.\nIn Part 2 (MAD), Cohort A patients fasted for 2 hours before and 2 hours after dosing. For example, if morning dosing occurred at 8 AM, patients could have a snack at 6 AM and a full breakfast at 10 AM. If afternoon dosing occurred at 8 PM, patients could have dinner at 6 PM and a snack at 10 PM. […] Cohort B, C, and D patients ingested food with each close.", "key": {"[1]": {"settings": "Cohort A + C (n = 14), 75 mg BID"}, "[2]": {"settings": "MAD Cohort A, 75 mg BID (4 h fasting), Mean"}, "[3]": {"settings": "MAD Cohort A, 75 mg BID (4 h fasting), individual subjects"}, "[4]": {"settings": "MAD Cohort B, 50 mg BID (with food), Mean"}, "[5]": {"settings": "MAD Cohort B, 50 mg BID (with food), individual subjects"}, "[6]": {"settings": "MAD Cohort C, 75 mg BID (with food), Mean"}, "[7]": {"settings": "MAD Cohort C, 75 mg BID (with food), individual subjects"}}, "note": "“And” between values parts separate entries of the source, which are not always exact repeats. Identical values can stand only once."}
{"smiles": "Cn1cc(S(=O)(=O)[C@@](C)(F)C2CCN(C(=O)Nc3ccon3)CC2)c(C(F)F)n1", "note": "[Compound I, (R)-4-(1-((3-(difluoromethyl)-1-methyl-1H-pyrazol-4-yl)sulfonyl)-1-fluoroethyl)-N-(isoxazol-3-yl)piperidine-1-carboxamide]", "values": [{"measurement": "Post-dose maximum concentration, steady-state (Day 9) plasma", "setting": "[1]", "result": "3862 (27.7%) ng/mL"}, {"measurement": "Pre-dose concentration, steady-state (Day 9) plasma", "setting": "[1]", "result": "2930 (36.8%) ng/mL"}, {"measurement": "time to steady-state plasma concentrations", "setting": "Cohort A, 75 mg twice daily, fasted", "result": "approximately 3 days"}, {"measurement": "Post-dose maximum concentration, steady-state (Day 9) plasma", "setting": "Cohort B (n = 8), 50 mg BID", "result": "2735 (17.5%) ng/mL"}, {"measurement": "Pre-dose concentration, steady-state (Day 9) plasma", "setting": "Cohort B (n = 8), 50 mg BID", "result": "2096 (20.0%) ng/mL"}, {"measurement": "time to steady-state plasma concentrations", "setting": "Cohort B, 50 mg twice daily with food", "result": "approximately 4 days"}, {"measurement": "Post-dose maximum concentration, steady-state (Day 9) plasma", "setting": "Cohort D (n = 6), 100 mg BID", "result": "5560 (22.8%) ng/mL"}, {"measurement": "Pre-dose concentration, steady-state (Day 9) plasma", "setting": "Cohort D (n = 6), 100 mg BID", "result": "4694 (25.5%) ng/mL"}, {"measurement": "Accumulation Ratio AUC tau", "setting": "[2]", "result": 3.74}, {"measurement": "Accumulation Ratio Cmax", "setting": "[2]", "result": 3.53}, {"measurement": "Accumulation_Index", "setting": "[2]", "result": 3.11}, {"measurement": "Cavg, ss", "setting": "[2]", "result": 3420, "unit": "ng/mL"}, {"measurement": "Cmin, SS", "setting": "[2]", "result": 2758, "unit": "ng/mL"}, {"measurement": "AUCtau, Day 1", "setting": "[3]", "result": "12360 ng·h/mL and 8025 ng·h/mL and 9501 ng·h/mL and 11570 ng·h/mL"}, {"measurement": "Accumulation Ratio AUC tau", "setting": "[3]", "result": "4.37 and 3.96 and 3.15* and 2.80 and 4.27 and 3.31"}, {"measurement": "Accumulation Ratio Cmax", "setting": "[3]", "result": "4.32 and 3.46 and 2.51* and 2.80 and 4.06 and 2.99"}, {"measurement": "Accumulation_Index", "setting": "[3]", "result": "3.82 and 3.89 and 2.79* and 2.21 and 3.00 and 2.61"}, {"measurement": "Cavg, ss", "setting": "[3]", "result": "3846 ng/mL and 4079 ng/mL and 2108* ng/mL and 2215 ng/mL and 3774 ng/mL and 3188 ng/mL"}, {"measurement": "Cmax, Day 1", "setting": "[3]", "result": "1360 ng/mL and 958 ng/mL and 981 ng/mL and 1100 ng/mL and 1250 ng/mL"}, {"measurement": "Cmax, SS", "setting": "[3]", "result": "4710 ng/mL and 2400* ng/mL and 2750 ng/mL and 4470 ng/mL and 3740 ng/mL"}, {"measurement": "Cmin, SS", "setting": "[3]", "result": "3050 ng/mL and 3510 ng/mL and 1450* ng/mL and 1740 ng/mL and 2880 ng/mL and 2610 ng/mL"}, {"measurement": "t1/2, λz", "setting": "[3]", "result": "27.41 hr and 28.02 hr and 18.78* hr and 13.84 hr and 20.55 hr and 17.21 hr"}, {"measurement": "AUC_TAU", "setting": "[3]", "result": "48950 hr*ng/mL and 25290* hr*ng/mL and 26580 hr*ng/mL and 45290 hr*ng/mL and 38250 hr*ng/mL"}, {"measurement": "Accumulation Ratio AUC tau", "setting": "[4]", "result": 4.09}, {"measurement": "Accumulation Ratio Cmax", "setting": "[4]", "result": 3.57}, {"measurement": "Accumulation_Index", "setting": "[4]", "result": 3.55}, {"measurement": "Cavg, ss", "setting": "[4]", "result": 2336, "unit": "ng/mL"}, {"measurement": "Cmin, SS", "setting": "[4]", "result": 1989, "unit": "ng/mL"}, {"measurement": "AUCtau, Day 1", "setting": "[5]", "result": "5050 ng·h/mL and 6754 ng·h/mL and 8138 ng·h/mL and 8855 ng·h/mL and 7249 ng·h/mL and 6347 ng·h/mL and 8620 ng·h/mL"}, {"measurement": "Accumulation Ratio AUC tau", "setting": "[5]", "result": "4.00 and 6.37 and 5.22 and 3.26 and 4.07 and 3.30 and 3.63 and 2.88"}, {"measurement": "Accumulation Ratio Cmax", "setting": "[5]", "result": "3.16 and 5.33 and 4.78 and 3.08 and 4.02 and 2.64 and 3.05 and 2.51"}, {"measurement": "Accumulation_Index", "setting": "[5]", "result": "3.63 and 5.03 and 4.46 and 2.93 and 3.51 and 2.42 and 3.20 (2×) and 4.23*"}, {"measurement": "Cavg, ss", "setting": "[5]", "result": "2478 ng/mL and 2681 ng/mL and 2940 ng/mL and 2213 ng/mL and 3002 ng/mL and 1991 ng/mL and 1919 ng/mL and 2070 ng/mL and 1725* ng/mL"}, {"measurement": "Cmax, Day 1", "setting": "[5]", "result": "548 ng/mL and 674 ng/mL and 830 ng/mL and 891 ng/mL and 901 ng/mL and 696 ng/mL and 974 ng/mL"}, {"measurement": "Cmax, SS", "setting": "[5]", "result": "2920 ng/mL and 3220 ng/mL and 2560 ng/mL and 3580 ng/mL and 2380 ng/mL and 2120 ng/mL and 2440 ng/mL and 2060* ng/mL"}, {"measurement": "Cmin, SS", "setting": "[5]", "result": "1900 ng/mL and 2380 ng/mL and 2640 ng/mL and 1810 ng/mL and 2370 ng/mL and 1440 ng/mL and 1720 ng/mL and 1650 ng/mL and 1320* ng/mL"}, {"measurement": "t1/2, λz", "setting": "[5]", "result": "25.81 hr and 37.48 hr and 32.77 hr and 19.93 hr and 24.77 hr and 15.57 hr and 22.23 hr and 22.21 hr and 30.87* hr"}, {"measurement": "AUC_TAU", "setting": "[5]", "result": "32170 hr*ng/mL and 35280 hr*ng/mL and 26560 hr*ng/mL and 36030 hr*ng/mL and 23890 hr*ng/mL and 23030 hr*ng/mL and 24840 hr*ng/mL and 20700* hr*ng/mL"}, {"measurement": "Accumulation Ratio AUC tau", "setting": "[6]", "result": 3.99}, {"measurement": "Accumulation Ratio Cmax", "setting": "[6]", "result": 3.28}, {"measurement": "Accumulation_Index", "setting": "[6]", "result": 3.18}, {"measurement": "Cavg, ss", "setting": "[6]", "result": 3357, "unit": "ng/mL"}, {"measurement": "Cmin, SS", "setting": "[6]", "result": 2812, "unit": "ng/mL"}, {"measurement": "AUCtau, Day 1", "setting": "[7]", "result": "13270 ng·h/mL and 8280 ng·h/mL and 10790 ng·h/mL and 9731 ng·h/mL and 6976 ng·h/mL and 9166 ng·h/mL and 14840 ng·h/mL and 11840 ng·h/mL"}, {"measurement": "Accumulation Ratio AUC tau", "setting": "[7]", "result": "2.44 and 1.90 and 3.48 and 4.61 and 7.62 and 3.88 and 2.59 and 4.85 and 4.53"}, {"measurement": "Accumulation Ratio Cmax", "setting": "[7]", "result": "2.17 and 1.80 and 3.20 and 4.06 and 4.80 and 2.80 and 2.38 and 4.63 and 3.68"}, {"measurement": "Accumulation_Index", "setting": "[7]", "result": "2.18 and 2.39 and 2.99 and 3.31 and 5.51 and 2.43 and 2.20 and 4.17 and 3.42"}, {"measurement": "Cavg, ss", "setting": "[7]", "result": "2695 ng/mL and 1308 ng/mL and 3126 ng/mL and 3738 ng/mL and 4432 ng/mL and 2963 ng/mL and 3206 ng/mL and 4267 ng/mL and 4474 ng/mL"}]}
